Assays:
OATP1B3 [1] = biological target: T1, OATP1B3 (Homo sapiens, UniProt Q9NPD5); conditions: 3 min; for Inhibition of cellular uptake by RIF, OATP1B3-overexpressing cells: 20 μM RIF, BUP 5 μM, OHB 30 μM, TB 10 μM, EB 5 μM; for Apparent Vmax / Km: net cellular uptake, CHO/OATP1B3-overexpressing cells, mean ± SD; for Km: read-out: Apparent Km
T1 sequence (Q9NPD5 1-702): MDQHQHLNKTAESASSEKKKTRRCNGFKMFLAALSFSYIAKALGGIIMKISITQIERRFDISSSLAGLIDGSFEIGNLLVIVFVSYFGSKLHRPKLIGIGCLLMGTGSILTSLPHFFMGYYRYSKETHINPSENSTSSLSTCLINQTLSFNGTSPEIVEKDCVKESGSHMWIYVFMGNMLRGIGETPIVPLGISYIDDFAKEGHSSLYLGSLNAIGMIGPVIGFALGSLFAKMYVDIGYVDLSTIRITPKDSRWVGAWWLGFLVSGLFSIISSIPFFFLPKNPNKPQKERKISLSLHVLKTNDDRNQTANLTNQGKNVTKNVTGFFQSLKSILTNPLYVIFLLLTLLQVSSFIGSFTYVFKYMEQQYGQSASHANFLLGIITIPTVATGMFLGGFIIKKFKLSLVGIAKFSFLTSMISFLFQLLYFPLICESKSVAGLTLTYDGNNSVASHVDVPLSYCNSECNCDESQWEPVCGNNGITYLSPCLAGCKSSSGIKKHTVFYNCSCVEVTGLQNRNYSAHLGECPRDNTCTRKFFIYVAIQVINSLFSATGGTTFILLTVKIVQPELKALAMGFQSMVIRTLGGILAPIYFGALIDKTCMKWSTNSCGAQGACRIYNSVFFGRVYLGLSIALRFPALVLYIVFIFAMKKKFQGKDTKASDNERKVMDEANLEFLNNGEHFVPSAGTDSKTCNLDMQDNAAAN

OATP1B3 [2] = biological target: T1, OATP1B3
[3] = ref [14], [15]; cited from earlier work
OATP1B1 [4] = biological target: T2, OATP1B1 (Homo sapiens, UniProt Q9Y6L6)
T2 sequence (Q9Y6L6 1-691): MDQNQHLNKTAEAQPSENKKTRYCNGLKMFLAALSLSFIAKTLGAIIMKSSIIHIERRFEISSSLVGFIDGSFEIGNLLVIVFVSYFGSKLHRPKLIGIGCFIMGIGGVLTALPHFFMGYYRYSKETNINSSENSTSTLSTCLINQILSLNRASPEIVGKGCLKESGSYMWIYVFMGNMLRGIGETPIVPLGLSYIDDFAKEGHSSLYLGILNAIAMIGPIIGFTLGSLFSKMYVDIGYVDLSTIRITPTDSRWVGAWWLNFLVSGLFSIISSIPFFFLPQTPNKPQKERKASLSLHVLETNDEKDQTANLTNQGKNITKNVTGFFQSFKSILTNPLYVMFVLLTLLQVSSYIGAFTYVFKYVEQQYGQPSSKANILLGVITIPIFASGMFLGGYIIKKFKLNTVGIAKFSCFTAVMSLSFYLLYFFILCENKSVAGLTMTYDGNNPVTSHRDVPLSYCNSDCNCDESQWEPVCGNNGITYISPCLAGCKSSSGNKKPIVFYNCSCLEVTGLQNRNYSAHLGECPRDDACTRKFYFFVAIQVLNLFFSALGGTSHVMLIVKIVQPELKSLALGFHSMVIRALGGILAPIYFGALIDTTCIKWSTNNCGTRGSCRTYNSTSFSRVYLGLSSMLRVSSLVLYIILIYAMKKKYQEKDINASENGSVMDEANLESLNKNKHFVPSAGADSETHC

OATP1B1 [5] = biological target: T2, OATP1B1; conditions: 3 min; for Inhibition of cellular uptake by RIF, OATP1B1-overexpressing cells: 20 μM RIF, BUP 5 μM, OHB 10 μM, TB 20 μM, EB 30 μM; for Apparent Vmax: net cellular uptake, CHO/OATP1B1-overexpressing cells, mean ± SD
OATP4A1 = biological target: T3, OATP4A1 (Homo sapiens, UniProt Q96BD0); test: Cellular uptake assay, HEK/OATP4A1 vs HEK empty vector cells
T3 sequence (Q96BD0 1-722): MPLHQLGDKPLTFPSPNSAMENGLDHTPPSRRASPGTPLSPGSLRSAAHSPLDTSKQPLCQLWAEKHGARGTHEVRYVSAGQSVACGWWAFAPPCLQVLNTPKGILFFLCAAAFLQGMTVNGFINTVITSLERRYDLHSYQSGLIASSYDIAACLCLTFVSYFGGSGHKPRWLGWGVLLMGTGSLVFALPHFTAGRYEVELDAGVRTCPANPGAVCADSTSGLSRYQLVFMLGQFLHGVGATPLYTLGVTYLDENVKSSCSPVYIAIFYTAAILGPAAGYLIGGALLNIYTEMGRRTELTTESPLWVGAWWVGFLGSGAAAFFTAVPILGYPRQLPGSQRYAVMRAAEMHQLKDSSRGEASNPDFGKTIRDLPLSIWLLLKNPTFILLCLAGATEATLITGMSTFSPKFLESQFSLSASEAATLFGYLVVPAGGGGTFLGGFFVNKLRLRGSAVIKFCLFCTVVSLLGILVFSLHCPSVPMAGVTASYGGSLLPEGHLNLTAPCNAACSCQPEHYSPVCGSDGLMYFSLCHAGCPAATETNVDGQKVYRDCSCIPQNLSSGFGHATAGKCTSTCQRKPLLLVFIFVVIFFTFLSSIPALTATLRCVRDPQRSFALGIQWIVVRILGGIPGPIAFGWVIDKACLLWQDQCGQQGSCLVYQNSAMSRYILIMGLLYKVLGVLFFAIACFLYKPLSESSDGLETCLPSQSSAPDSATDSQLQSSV

SMILES | Inhibition of cellular uptake by RIF, OATP1B3-overexpressing cells (OATP1B3 [1]) | Apparent Vmax (OATP1B3 [1]) [pmol/mg protein/min] | Km (OATP1B3 [1]) [µM] | Substrate of OATP1B3 (conclusion) (OATP1B3 [2]) | Pharmacological activity relative to BUP [3] | Substrate of OATP1B1 (conclusion) (OATP1B1 [4]) | Inhibition of cellular uptake by RIF, OATP1B1-overexpressing cells (OATP1B1 [5]) | Apparent Vmax (OATP1B1 [5]) [pmol/mg protein/min] | Substrate of OATP4A1 (conclusion) (OATP4A1)
CC(NC(C)(C)C)C(O)c1cccc(Cl)c1 (stereo not drawn) [EB, Erythrohydrobupropion] | no statistically significant differences | 1026±37 | 14 ± 2 | not substrates | 20% | not substrates | no statistically significant differences | 1806±133 | not substrates
C[C@H]1NC(C)(C)CO[C@]1(O)c1cccc(Cl)c1 [OHB, Hydroxybupropion] | no statistically significant differences | 1258±86 | 76 ± 14 | not substrates | 50–100% | not substrates | no statistically significant differences | 1423 ± 49 | not substrates
C[C@H](NC(C)(C)C)[C@@H](O)c1cccc(Cl)c1 [TB, Threohydrobupropion] | no statistically significant differences | 2536±97 | 21 ± 3 | not substrates | 20% | not substrates | no statistically significant differences | 1351±55 | not substrates
